From the supplement of paper PMC10307832

Legend:
Assay in all cases: relative viability (nuclei count vs DMSO), 5 days (fraction); higher = more cells survive
[1] = compound: C1CNCCC1C2=CC(=NN2)C3=CC=NC=C3 + NC(=O)Nc1cc(-c2cccc(F)c2)sc1C(=O)N[C@H]1CCCNC1 [AZD7762] (partner 0.2 µM)
Summary of the method: (§1)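 Relative viability divides the nuclei count in treated wells by that in vehicle wells. Lung cancer cell lines were seeded in 1536-well plates, dosed by pin tool the next day, and fixed and stained after 5 days in one step with final 0.05% Triton X-100, 1% formaldehyde and 1 ug/ml Hoechst. Dosing was a single drug or a fixed anchor-drug dose plus five library-drug doses (not always all listed) in √10 steps, and values are medians of duplicate plates imaged at 4×.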

[2] = compound: C1CNCCC1C2=CC(=NN2)C3=CC=NC=C3 + Nc1nc2[nH]cc(CCc3ccc(C(=O)N[C@@H](CCC(=O)O)C(=O)O)cc3)c2c(=O)[nH]1 [Pemetrexed] (partner 0.2 µM)
Summary of the method: as §1

[3] = compound: C1CNCCC1C2=CC(=NN2)C3=CC=NC=C3 + Nc1ncn([C@H]2C[C@H](O)[C@@H](CO)O2)c(=O)n1 [Decitabine] (partner 2 µM)
Summary of the method: as §1

Tanzisertib + Trametinib = compound: O[C@H]1CC[C@H](Nc2ncc3nc(Nc4c(F)cc(F)cc4F)n([C@H]4CCOC4)c3n2)CC1 [Tanzisertib] + CC(=O)Nc1cccc(-n2c(=O)n(C3CC3)c(=O)c3c(Nc4ccc(I)cc4F)n(C)c(=O)c(C)c32)c1 [Trametinib] (partner 0.02 µM)
Summary of the method: as §1

Cell Line	relative viability ([1]; first compound 0.08 µM)	relative viability ([1]; first compound 0.8 µM)	relative viability ([1]; first compound 2.53 µM)	relative viability ([1]; first compound 8 µM)	relative viability ([2]; first compound 0.08 µM)	relative viability ([2]; first compound 0.8 µM)	relative viability ([2]; first compound 2.53 µM)	relative viability ([2]; first compound 8 µM)	relative viability ([3]; first compound 0.08 µM)	relative viability ([3]; first compound 0.8 µM)	relative viability ([3]; first compound 2.53 µM)	relative viability ([3]; first compound 8 µM)	relative viability (Tanzisertib + Trametinib; first compound 0.08 µM)	relative viability (Tanzisertib + Trametinib; first compound 0.253 µM)	relative viability (Tanzisertib + Trametinib; first compound 0.8 µM)	relative viability (Tanzisertib + Trametinib; first compound 2.53 µM)	relative viability (Tanzisertib + Trametinib; first compound 8 µM)
201T	0.645	0.65	0.654	0.562	0.349	0.384	0.332	0.352	0.835	0.857	0.846	0.866	0.731	0.756	0.701	0.806	0.764
A549									0.208	0.282	0.302	0.146					
A-427	0.752	0.802	0.92	0.774	0.967	0.996	0.982	0.94	0.557	0.603	0.578	0.498	0.813	0.745	0.742	0.736	0.751
ABC-1	0.851	0.519	0.915	1.02					1.23	1.02	1.32	1.08					
BEN	0.546	0.634	0.675	0.772	0.788	0.638	0.793	0.933	0.676	0.652	0.779	0.777	1.06	1.09	1.04	1.08	1.09
CAL-12T	0.701	0.669	0.601	0.66	1.22	1.32	1.21	1.09					0.317	0.336	0.396	0.387	0.432
COR-L23					0.192	0.212	0.193	0.192	0.424	0.429	0.516	0.47	0.717	0.627	0.7	0.616	0.547
COR-L 105					1.19	1.19	1.12	1.06	0.568	0.729	0.687	0.772	0.43	0.493	0.485	0.448	0.37
ChaGo-K-1	0.886	0.876	0.926	0.753	0.262	0.261	0.269	0.298	0.496	0.525	0.506	0.529	0.902	0.896	0.821	0.91	0.832
EKVX	0.754		0.704	0.701	0.423		0.427	0.404	0.291		0.318	0.323	0.487	0.301	0.368	0.347	0.295
EMC-BAC-2	0.892	1.14	1.16	1.12	0.464	0.448	0.435	0.439		1.06	1	1.03	0.904	0.84	0.864	0.955	0.962
EPLC-272H	0.18	0.261	0.26	0.212	0.298	0.317	0.38	0.412	0.372	0.385	0.389	0.365	0.318	0.279	0.322	0.317	0.297
H3255	0.954	0.835	1.12	0.967	0.578	0.629	0.638	0.623	0.532		0.674	0.587	0.696	0.646	0.766	0.726	0.523
HARA	0.328	0.306	0.295	0.258	0.238	0.236	0.228	0.159	0.471	0.524	0.762	0.432	0.801	0.692	0.689	0.711	0.687
HCC-15	1.17	1.3	1.21	0.987	0.221	0.229	0.234	0.211	0.652	0.793	0.587	0.621	0.406	0.364	0.414	0.36	0.342
HCC-44	0.976	1.04	1.04	1.04	0.678	0.659	0.64	0.613	0.957	0.989	0.961	0.942	1.17	1.08	1.09	0.979	1.06
HCC-78	0.644		0.888	0.723	0.901		0.925	0.885	0.677		0.637	0.743	0.847	0.737	0.889	0.787	0.842
HCC-366	0.271	0.361	0.287	0.345	0.212	0.193	0.146	0.173	0.266	0.353	0.373	0.366		0.39	0.376	0.292	0.258
HCC-827	0.248	0.155	0.271	0.223	0.222	0.238	0.132	0.262	0.294	0.302	0.297	0.336	0.556	0.552	0.481	0.411	0.265
HOP-62	0.67	1	0.751	0.462	0.312	0.336	0.272	0.335	0.226	0.234	0.205	0.201	0.389	0.341	0.435	0.412	0.346
LC-2-ad	0.84	0.859	0.872	0.87	0.261	0.291	0.273	0.281	0.682	0.791	0.868	0.789	1	0.915	0.973	0.932	0.877
LCLC-97TM1	0.27	0.239	0.248	0.332	0.186	0.161	0.17	0.173	0.232	0.283	0.214	0.262	0.236	0.227	0.234	0.172	0.172
LCLC-103H	0.724	0.738	0.904	0.837	0.492	0.5	0.493	0.487	0.767	0.735	0.755	0.642	0.661	0.744	0.703	0.691	0.71

Cell Line	relative viability ([1]; first compound 0.08 µM)	relative viability ([1]; first compound 0.8 µM)	relative viability ([1]; first compound 2.53 µM)	relative viability ([1]; first compound 8 µM)	relative viability ([2]; first compound 0.08 µM)	relative viability ([2]; first compound 0.8 µM)	relative viability ([2]; first compound 2.53 µM)	relative viability ([2]; first compound 8 µM)	relative viability ([3]; first compound 0.08 µM)	relative viability ([3]; first compound 0.8 µM)	relative viability ([3]; first compound 2.53 µM)	relative viability ([3]; first compound 8 µM)	relative viability (Tanzisertib + Trametinib; first compound 0.08 µM)	relative viability (Tanzisertib + Trametinib; first compound 0.253 µM)	relative viability (Tanzisertib + Trametinib; first compound 0.8 µM)	relative viability (Tanzisertib + Trametinib; first compound 2.53 µM)	relative viability (Tanzisertib + Trametinib; first compound 8 µM)
LK-2		0.29	0.532	0.522		0.263	0.295	0.267		0.237	0.404	0.358	0.916	0.76	0.816	0.694	0.866
LOU-NH91	0.797	0.739	0.853	0.773	0.403	0.63	0.367	0.351	0.84	0.851	0.832	0.79	0.824	0.811	0.773	0.756	0.71
LU99A	0.403	0.338	0.4	0.439	0.218	0.181	0.153	0.337	0.857	0.982	0.919	0.842	0.632	0.573	0.591	0.531	0.559
LXF-289	1.15	1.14	1.15	1.1	0.936	0.967	0.856	0.814	0.349	0.35	0.395	0.371	0.694	0.691	0.748	0.663	0.82
NCI-H23	0.329		0.326	0.308	0.719		0.808	0.818	0.306		0.301	0.377	0.389	0.357	0.418	0.367	0.419
NCI-H322M	0.582	0.597	0.627	0.622	0.636	0.589	0.641	0.667	0.67	0.645	0.736	0.872	0.464	0.482	0.491	0.448	0.544
NCI-H358	0.487	0.626	0.553	0.54	0.181	0.176	0.178	0.157	0.224	0.226	0.21	0.217	0.141	0.134	0.151	0.155	0.133
NCI-H441	0.967	1.18	0.948	1.19	0.264	0.251	0.247	0.243	0.226	0.255	0.243	0.248	0.567	0.452	0.456	0.429	0.388
NCI-H460	0.69	0.673	0.652	0.658	0.0816	0.066	0.0652	0.0683	0.379	0.608	0.554	0.474	0.177	0.11	0.2	0.139	0.0888
NCI-H520					0.652	0.743	0.637	0.517	0.445	0.519	0.518	0.498	0.734	0.724	0.814	0.776	0.646
NCI-H522	0.764	0.915	0.832	0.879	0.844	1.13	0.934	1.26	0.619	0.646	0.552	0.789	0.766	0.535	0.688	0.826	0.69
NCI-H661					0.967	0.942	0.939	0.891	0.549	0.57	0.541	0.541	0.684	0.574	0.55	0.647	0.54
NCI-H727	0.658	0.474	0.72	0.773					0.872	0.865	0.871	0.952	0.38	0.391	0.387	0.347	0.352
NCI-H1563					0.818	0.662	0.961	0.904									
NCI-H1650					0.374	0.422	0.331	0.381	0.216	0.49	0.399	0.509	0.458	0.689	0.609	0.532	0.415
NCI-H1703		0.104		0.133													
NCI-H2009					0.958	1.05	0.992	1.03	0.374	0.4	0.343	0.37	0.316	0.274	0.274	0.247	0.21
NCI-H2023					0.206	0.222	0.224	0.241	0.219	0.222	0.251	0.194	0.571	0.538	0.517	0.439	0.499
NCI-H2228					0.31	0.373	0.384	0.356					0.581	0.34	0.806	0.362	0.259
SK-LU-1					0.955	1.04	1.04	0.976	0.571	0.646	0.674	0.638	0.576	0.507	0.528	0.54	0.471
SK-MES-1					0.985	0.9	0.989	0.94	0.29	0.436	0.397	0.339	0.618	0.549	0.54	0.493	0.385
SW 1573						0.881	0.912	0.992		0.471	0.711	0.76	0.555	0.514	0.547	0.521	0.456
